Measurements taken from article PMC2151583 (The Journal of General Physiology, 2006).
Positions count from the first letter of the chain named.

Experiments:
Assay in all cases: inside-out patch clamp, Xenopus oocytes
HCN2 [1] = target: T1, HCN2 (Mus musculus, UniProt O88703); type: cell-based
T1 sequence (O88703 1-863): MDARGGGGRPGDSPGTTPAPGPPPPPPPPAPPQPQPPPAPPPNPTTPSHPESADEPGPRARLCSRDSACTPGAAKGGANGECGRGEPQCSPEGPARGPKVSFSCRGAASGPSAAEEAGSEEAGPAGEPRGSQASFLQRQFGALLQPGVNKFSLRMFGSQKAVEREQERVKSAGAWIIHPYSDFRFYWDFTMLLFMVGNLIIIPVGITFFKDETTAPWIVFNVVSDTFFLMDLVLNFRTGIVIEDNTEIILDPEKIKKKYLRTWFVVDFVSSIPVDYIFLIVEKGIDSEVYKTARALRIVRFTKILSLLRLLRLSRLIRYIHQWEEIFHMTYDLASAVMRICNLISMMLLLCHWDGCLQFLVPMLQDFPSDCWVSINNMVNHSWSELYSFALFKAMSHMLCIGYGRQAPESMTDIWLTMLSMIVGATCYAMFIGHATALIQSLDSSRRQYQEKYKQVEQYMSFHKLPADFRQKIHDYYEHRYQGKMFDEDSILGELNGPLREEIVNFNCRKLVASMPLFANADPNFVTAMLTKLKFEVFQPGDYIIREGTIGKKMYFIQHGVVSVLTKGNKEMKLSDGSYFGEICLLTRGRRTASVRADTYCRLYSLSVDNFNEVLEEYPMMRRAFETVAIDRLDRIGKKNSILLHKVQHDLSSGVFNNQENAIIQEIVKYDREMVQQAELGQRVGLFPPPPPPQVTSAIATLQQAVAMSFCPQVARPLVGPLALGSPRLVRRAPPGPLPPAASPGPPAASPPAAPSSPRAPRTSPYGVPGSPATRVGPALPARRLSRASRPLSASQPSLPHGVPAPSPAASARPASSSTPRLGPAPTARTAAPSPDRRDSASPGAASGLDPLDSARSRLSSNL

HCN2/FPN = target: T2, HCN2/FPN (Mus musculus, UniProt O88703, Q450F/E451P/K452N); type: cell-based
T2 sequence (O88703 1-863 Q450F/E451P/K452N): T1 sequence (O88703 1-863) with Q450F, E451P, K452N

HCN2 [2] = target: T1, HCN2; type: biochemical
HCN2 [3] = target: T1, HCN2; type: cell-based; remark: listed apart in the source

Row | Compound | inside-out patch clamp, Xenopus oocytes; shift in V1/2 at 25 μM (HCN2 [1]) [mV] | inside-out patch clamp, Xenopus oocytes; shift in V1/2 at 1 μM (HCN2 [3]) | further results
1 | CCCCCCCC(=O)OC[C@H](COP(=O)(O)O[C@H]1[C@H](O)[C@@H](O)[C@H](OP(=O)(O)O)[C@@H](OP(=O)(O)O)[C@H]1O)OC(=O)CCCCCCC [diC8 PI(3,4)P2, dioctanoyl phosphatidylinositol 3,4-bisphosphate] | 12.3 |  | 
2 | CCCCCCCC(=O)OC[C@H](COP(=O)(O)O[C@H]1[C@H](O)[C@@H](OP(=O)(O)O)[C@H](OP(=O)(O)O)[C@@H](OP(=O)(O)O)[C@H]1O)OC(=O)CCCCCCC [diC8 PI(3,4,5)P3, dioctanoyl phosphatidylinositol 3,4,5-trisphosphate] | 9.3 |  | 
3 | CCCCCCCC(=O)OC[C@H](COP(=O)(O)O[C@H]1[C@H](O)[C@@H](O)[C@H](OP(=O)(O)O)[C@@H](O)[C@H]1O)OC(=O)CCCCCCC [diC8 PI(4)P, dioctanoyl phosphatidylinositol 4-phosphate] | 7.5 |  | 
4 | CCCCCCCC(=O)OC[C@H](COP(=O)(O)O[C@@H]1[C@H](O)[C@H](O)[C@@H](OP(=O)(O)O)[C@H](OP(=O)(O)O)[C@H]1O)OC(=O)CCCCCCC [diC8 PI(4,5)P2, dioctanoyl phosphatidylinositol 4,5-bisphosphate] |  |  | inside-out patch clamp, Xenopus oocytes; shift in V1/2 at 25 μM (HCN2/FPN): +13.9 mV; EC50 (HCN2 [2]): 10.9 µM

Further lines, with some results ahead:

Row | inside-out patch clamp, Xenopus oocytes; shift in V1/2 at 25 μM (HCN2 [1]) [mV] | inside-out patch clamp, Xenopus oocytes; shift in V1/2 at 1 μM (HCN2 [3]) | Compound | further results
5 |  | +16.0 mV | CCCCCCCC/C=C\CCCCCCCC(=O)SCCNC(=O)CCNC(=O)[C@H](O)C(C)(C)COP(=O)(O)OP(=O)(O)OC[C@H]1O[C@@H](n2cnc3c(N)ncnc32)[C@H](O)[C@@H]1OP(=O)(O)O [oleoyl CoA, Oleoyl CoA] | 
6 |  | +31.8 mV | phosphatidylinositol 4,5-bisphosphate [native PI(4,5)P2] | 
